US20210253562A1, “ACYLSUFONAMIDE COMPOUNDS USEFUL AS EP3 RECEPTOR ANTAGONISTS” (Janssen Pharmaceutica NV, priority 2018, published 2021)
Like-named read-outs stand apart in the source and are kept apart here.

How the values were obtained:
[1] = biological target: T1, EP3 membrane (EP3 receptor) (Homo sapiens, UniProt P43115); experiment: [3H]-PGE2 binding; EP3 competition binding (SPA)
T1 construct: purchased Millipore HTS092M
T1 sequence (P43115 1-390): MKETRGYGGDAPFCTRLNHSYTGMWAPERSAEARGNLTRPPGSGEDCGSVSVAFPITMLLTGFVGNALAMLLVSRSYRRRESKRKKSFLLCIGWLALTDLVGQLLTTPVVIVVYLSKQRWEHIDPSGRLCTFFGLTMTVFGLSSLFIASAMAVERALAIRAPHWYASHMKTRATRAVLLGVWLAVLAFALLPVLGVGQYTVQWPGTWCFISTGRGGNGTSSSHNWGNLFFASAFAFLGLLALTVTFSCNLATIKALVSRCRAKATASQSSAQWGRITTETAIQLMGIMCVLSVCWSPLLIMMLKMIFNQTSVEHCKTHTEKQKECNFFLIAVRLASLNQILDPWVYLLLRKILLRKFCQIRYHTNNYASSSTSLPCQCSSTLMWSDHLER
In short: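 SPA competition at room temperature, 2 h: EP3 membranes 2 μg/well, 2 nM [3H]-PGE2, 0.1% DMSO, in Tris/MgCl2/EDTA buffer pH 7.4. Compounds in 1:3 serial dilution; scintillation read; Ki by one-site nonlinear fit.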

[2] = biological target: T2, CHO cells over-expressing the EP3 receptor (Homo sapiens, UniProt P43115); experiment: CHO cell cAMP assay; EP3 cAMP antagonist dose response (sulprostone reference), HTRF; assay type: cell-based; details: sulprostone 700 nM (EC80) and FSK 2 μM (EC70); read-out: CHO_cAMP IC50
T2 construct: expressed in transfected cells; host or cells: CHO cells
T2 sequence (P43115 1-390): T1 sequence (P43115 1-390)
In short: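 EP3-overexpressing CHO cells pre-incubated with test compound, then stimulated 30 min at 37 °C with FSK (2 μM, EC70) plus sulprostone (700 nM, EC80); antagonism seen as restored cAMP. cAMP measured by HTRF 665/615 ratio, converted via on-plate standard curve. IC50 from Hill fit of 11-point dosing.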

Compound | Ki [1] | IC50 [2] | Ki ([1]; unit nM)
O=C(NC/C(F)=C1\CCCc2onc(Cc3ccc(Cl)cc3Cl)c21)NS(=O)(=O)c1cc(Cl)c(Cl)s1 [Compound #127, (Z)-4,5-dichloro-N-((2-(3-(2,4-dichlorobenzyl)-6,7-dihydrobenzo[d]isoxazol-4(5H)-ylidene)-2-fluoroethyl)carbamoyl)thiophene-2-sulfonamide] | 1 nM | 8 nM | –
O=C(NC/C(F)=C1/CCCc2onc(Cc3ccc(Cl)cc3Cl)c21)NS(=O)(=O)c1cc(Cl)c(Cl)s1 [Compound #128, (E)-4,5-dichloro-N-((2-(3-(2,4-dichlorobenzyl)-6,7-dihydrobenzo[d]isoxazol-4(5H)-ylidene)-2-fluoroethyl)carbamoyl)thiophene-2-sulfonamide] | 532 nM | 8400 nM | –
O=C(NC/C(F)=C1\CCCn2nnc(Cc3ccccc3)c21)NS(=O)(=O)c1cc(Cl)c(Cl)s1 [Compound #129, (Z)—N-((2-(3-benzyl-6,7-dihydro-[1,2,3]triazolo[1,5-a]pyridin-4(5H)-ylidene)-2-fluoroethyl)carbamoyl)-4,5-dichlorothiophene-2-sulfonamide] | 29 nM | 548 nM | –
O=C(NC/C(F)=C1\CCc2cnn(-c3ccc(C(F)(F)F)cc3)c21)NS(=O)(=O)c1cc(Cl)c(Cl)s1 [Compound #130, (Z)-4,5-dichloro-N-((2-fluoro-2-(1-(4-(trifluoromethyl)phenyl)-4,5-dihydrocyclopenta[c]pyrazol-6(1H)-ylidene)ethyl)carbamoyl)thiophene-2-sulfonamide] | 40 nM | 182 nM | –
COc1ccc(Cl)cc1S(=O)(=O)NC(=O)NC/C(F)=C1\CCCc2cnn(Cc3ccc(C(F)(F)F)cc3)c21 [Compound #131, (Z)-5-chloro-N-((2-fluoro-2-(1-(4-(trifluoromethyl)benzyl)-1,4,5,6-tetrahydro-7H-indazol-7-ylidene)ethyl)carbamoyl)-2-methoxybenzenesulfonamide] | 94 nM | 349 nM | –
O=C(NC/C(F)=C1\CCCc2cnn(Cc3ccc(C(F)(F)F)cc3)c21)NS(=O)(=O)c1cc2ccccc2o1 [Compound #132, (Z)—N-((2-fluoro-2-(1-(4-(trifluoromethyl)benzyl)-1,4,5,6-tetrahydro-7H-indazol-7-ylidene)ethyl)carbamoyl)benzofuran-2-sulfonamide] | 350 nM | 3900 nM | –
O=C(NC/C(F)=C1\CCCc2cnn(Cc3ccc(C(F)(F)F)cc3)c21)NS(=O)(=O)c1cc2ccccc2s1 [Compound #133, (Z)—N-((2-fluoro-2-(1-(4-(trifluoromethyl)benzyl)-1,4,5,6-tetrahydro-7H-indazol-7-ylidene)ethyl)carbamoyl)benzo[b]thiophene-2-sulfonamide] | 289 nM | 1260 nM | –
O=C(NC/C(F)=C1\CCCc2cnn(Cc3ccc(C(F)(F)F)cc3)c21)NS(=O)(=O)c1cc(Cl)c(Cl)s1 [Compound #134, (Z)-4,5-dichloro-N-((2-fluoro-2-(1-(4-(trifluoromethyl)benzyl)-1,4,5,6-tetrahydro-7H-indazol-7-ylidene)ethyl)carbamoyl)thiophene-2-sulfonamide] | 7 nM | 52 nM | –
O=C(NC/C(F)=C1/CCCn2nnc(Cc3ccccc3)c21)NS(=O)(=O)c1cc(Cl)c(Cl)s1 [Compound #135, (E)-N-((2-(3-benzyl-6,7-dihydro-[1,2,3]triazolo[1,5-a]pyridin-4(5H)-ylidene)-2-fluoroethyl)carbamoyl)-4,5-dichlorothiophene-2-sulfonamide] | 472 nM | 4600 nM | –
O=C(NC/C(F)=C1\CCc2cnn(Cc3ccc(Cl)cc3Cl)c21)NS(=O)(=O)c1cc(Cl)c(Cl)s1 [Compound #136, (Z)-4,5-dichloro-N-((2-(1-(2,4-dichlorobenzyl)-4,5-dihydro-cyclopenta[c]pyrazol-6(1H)-ylidene)-2-fluoroethyl)carbamoyl)thiophene-2-sulfonamide] | 5 nM | 46 nM | –
O=C(NC/C(F)=C1/CCc2cnn(-c3ccc(C(F)(F)F)cc3)c21)NS(=O)(=O)c1cc(Cl)c(Cl)s1 [Compound #137, (E)-4,5-dichloro-N-((2-fluoro-2-(1-(4-(trifluoromethyl)phenyl)-4,5-dihydrocyclopenta[c]pyrazol-6(1H)-ylidene)ethyl)carbamoyl)thiophene-2-sulfonamide] | 220 nM | 488 nM | –
O=C(NC/C=C1\CCCc2cnn(Cc3cnc(-c4ccccc4)nc3)c21)NS(=O)(=O)c1cc(Cl)c(Cl)s1 [Compound #138, (E)-4,5-dichloro-N-((2-(1-((2-phenylpyrimidin-5-yl)methyl)-1,4,5,6-tetrahydro-7H-indazol-7-ylidene)ethyl)carbamoyl)thiophene-2-sulfonamide] | – | 6 nM | 0.4 nM
Cc1ncc(S(=O)(=O)NC(=O)NC/C=C2\CCCc3cnn(Cc4ccc(Cl)cc4Cl)c32)s1 [Compound #139, (E)-N-((2-(1-(2,4-dichlorobenzyl)-1,4,5,6-tetrahydro-7H-indazol-7-ylidene)ethyl)carbamoyl)-2-methylthiazole-5-sulfonamide] | 7 nM | 9 nM | –
O=C(NC/C=C1\CCCc2cnn(C3CCN(c4ccccn4)CC3)c21)NS(=O)(=O)c1cc(Cl)c(Cl)s1 [Compound #140, (E)-4,5-dichloro-N-((2-(1-(1-(pyridin-2-yl)piperidin-4-yl)-1,4,5,6-tetrahydro-7H-indazol-7-ylidene)ethyl)carbamoyl)thiophene-2-sulfonamide] | 8 nM | 12 nM | –
COc1ccc(Cn2ncc3c2/C(=C(\F)CNC(=O)NS(=O)(=O)c2cc(Cl)c(Cl)s2)CCC3)cn1 [Compound #141, (Z)-4,5-dichloro-N-((2-fluoro-2-(1-((6-methoxypyridin-3-yl)methyl)-1,4,5,6-tetrahydro-7H-indazol-7-ylidene)ethyl)carbamoyl)thiophene-2-sulfonamide] | 215 nM | 750 nM | –
COc1ccc(S(=O)(=O)NC(=O)NC/C(F)=C2\CCCc3cnn(Cc4ccc(Cl)cc4Cl)c32)cc1Cl [Compound #143, (Z)-3-chloro-N-((2-(1-(2,4-dichlorobenzyl)-1,4,5,6-tetrahydro-7H-indazol-7-ylidene)-2-fluoroethyl)carbamoyl)-4-methoxybenzenesulfonamide] | 3 nM | 18 nM | –
O=C(NC/C(F)=C1\COCc2[nH]nc(Cc3ccc(Cl)cc3Cl)c21)NS(=O)(=O)c1cc(Cl)c(Cl)s1 [Compound #147, (E)-4,5-dichloro-N-((2-(3-(2,4-dichlorobenzyl)-1,7-dihydropyrano[3,4-c]pyrazol-4(5H)-ylidene)-2-fluoroethyl)carbamoyl)thiophene-2-sulfonamide] | – | 5 nM | 0.4 nM
Cc1cc(S(=O)(=O)NC(=O)NC/C(F)=C2\CCCc3cnn(Cc4ccc(Cl)cc4Cl)c32)sc1Cl [Compound #149, (Z)-5-chloro-N-((2-(1-(2,4-dichlorobenzyl)-1,4,5,6-tetrahydro-7H-indazol-7-ylidene)-2-fluoroethyl)carbamoyl)-4-methylthiophene-2-sulfonamide] | 2 nM | 6 nM | –
Cc1nc(C)c(S(=O)(=O)NC(=O)NC/C=C2\CCCc3cnn(Cc4ccc(Cl)cc4Cl)c32)s1 [Compound #150, (E)-N-((2-(1-(2,4-dichlorobenzyl)-1,4,5,6-tetrahydro-7H-indazol-7-ylidene)ethyl)carbamoyl)-2,4-dimethylthiazole-5-sulfonamide] | 2 nM | 4 nM | –
Cn1cc(S(=O)(=O)NC(=O)NC/C=C2\CCCc3cnn(Cc4ccc(Cl)cc4Cl)c32)cn1 [Compound #152, (E)-N-((2-(1-(2,4-dichlorobenzyl)-1,4,5,6-tetrahydro-7H-indazol-7-idene)ethyl)carbamoyl)-1-methyl-1H-pyrazole-4-sulfonamide] | 9 nM | 8 nM | –
O=C(NC/C=C1\CCCn2nnc(-c3ccc(C(F)(F)F)cc3)c21)NS(=O)(=O)c1cc(Cl)c(Cl)s1 [Compound #155, (E)-4,5-dichloro-N-((2-(3-(4-(trifluoromethyl)phenyl)-6,7-dihydro-[1,2,3]triazolo[1,5-a]pyridin-4(5H)-ylidene)ethyl)carbamoyl)thiophene-2-sulfonamide] | 2 nM | 4 nM | –
O=C(NC/C(F)=C1\CCCc2cnn(Cc3ccc(Cl)cc3Cl)c21)NS(=O)(=O)c1ccc(F)c(F)c1 [Compound #156, (Z)—N-((2-(1-(2,4-dichlorobenzyl)-1,4,5,6-tetrahydro-7H-indazol-7-ylidene)-2-fluoroethyl)carbamoyl)-3,4-difluorobenzenesulfonamide] | 2 nM | 4 nM | –
O=C(NS(=O)(=O)c1ccc(Cl)cc1)OC/C=C1\CCCc2cnn(-c3ncccn3)c21 [compound 95] | > 10000 nM | > 20000 nM | –
O=C(NS(=O)(=O)c1ccc(Cl)cc1)OC/C(F)=C1/COCc2cnn(-c3cccc(C(F)(F)F)c3)c21 [compound 108] | > 10000 nM | > 20000 nM | –
